# Source: US11267830B2, “Flow battery and components thereof” (University of Massachusetts, priority 2017, dated 2022)
# Where two headings read alike, the source gives them in different places.
# Assays:
# [1] = earlier study, sample contaminated by mono-sodium salt of the ligand; cited from earlier work
# [2] = Cyclic voltammetry (formal potential, diffusion coefficient); format: physicochemical; details: for diffusion coefficient for the one-electron oxidation: 0.5 M TBAPF6, Randles-Sevcik fit
# Experimental: (§1) Cyclic voltammetry was carried out in DMSO using a 3 mm glassy carbon electrode as working electrode, a Pt wire counter electrode, a silver wire pseudo reference electrode and tetrabutylammonium hexafluorophosphate as supporting […]. Ferrocene was used as an internal potential reference. Static cell cycling was carried out using graphite felt (Alfa Aesar, part #AA14630RR) which was heat-treated in a furnace at 250° C. under air, overnight, before use.
# CV data with variable scan rates were used to determine the diffusion coefficient for the one-electron oxidation of CVBH^−2 by fitting with the Randles-Sevcik equation. In addition, to investigate the effect of solvent on this property, the analysis was carried out in propylene carbonate (PC).
# Solubility in solvents = format: physicochemical; details: solvents other than DMSO and water
# Description: Since the solubility of CVBH is low in solvents other than DMSO and water, investigation of the electrochemistry in PC necessitated the synthesis of the bis-tetramethylammonium (TMA) salt of vanadium bis-hydroxyiminodiacetate (VBH), which was characterized using FTIR and X-ray crystallography (FIG. 2). While the coordination sphere of the VBH dianion is unperturbed compared to that of CVBH, solubility is greatly altered with two diffuse TMA countercations compared to the Ca^+2 counter-cation of CVBH. Altering the cation(s) of VBH^2− is a way to tune solubility in various battery-relevant solvents and compatibility with an array of membrane/separator architectures and supporting electrolytes. These attributes are paramount to realization of high power and energy densities in NRFB systems and this strategy offers a promising avenue for optimization.
# [3] = Static cell cycling to ~80% state of charge; format: physicochemical; details: more than 90 cycles, 0.35 V and −0.35 V vs. open circuit
# Experimental: as §1
# As such, the behavior of CVBH during cycling to ˜80% state of charge was investigated by alternately applying potentials of 0.35 V and −0.35 V vs. open circuit to oxidize and reduce the compound, respectively. […] Some decrease in peak current over time was observed (FIG. 5B), however, it was restored after stirring was stopped for 20 minutes (FIG. 5B, dotted line).
# [4] = Metal-ligand stability constant; format: physicochemical; details: oxidized, vanadium(v) state; deduced using a thermodynamic cycle
# Description: (§2) Any decomposition of CVBH under these conditions would be evident as a decrease in peak current and changes in reversibility, as the identity of the species present at the electrode evolved over time. […] This is in stark contrast to the anaerobic and anhydrous conditions that are necessary in handling other NRFB active materials. […] This occurs even in ostensibly anhydrous systems due to the presence of adventitious water, and is the result of ligand substitution, yielding a vanadyl (V═O) species that is nearly ubiquitous in aqueous vanadium(iv) coordination chemistry. It should be further noted that CVBH is stable in both the reduced, vanadium(iv), state (as-synthesized) and the oxidized, vanadium(v) state, with metal ligand stability constants of 8.2×10^21 and 2.6×10^23, respectively. While the former has been measured, the latter can be deduced using a thermodynamic cycle, constructed from published data for the vanadium(iv/v) reduction potentials of CVBH and aqueous, acidic vanadium ions, along with the metal-ligand stability constant of CVBH in the vanadium(iv) oxidation state (FIG. 4).
# [5] = Exhaustive cycling using cyclic voltammetry (stability); format: physicochemical
# Experimental: as §1
# as §2, with “It should be further noted that CVBH is stable in both the reduced, vanadium(iv), state (as-synthesized) and the oxidized, vanadium(v) state, with metal ligand stability constants of 8.2×10^21 and 2.6×10^23, respectively.” left out
# [6] = reduced, vanadium(iv) state; cited from earlier work
# [7] = when oxidized to the 4+ state; cited from earlier work
diffusion coefficient for the one-electron oxidation ([2]; DMSO),diffusion coefficient for the one-electron oxidation ([2]; propylene carbonate (PC)),solubility (Solubility in solvents),metal ligand stability constant [4],change in voltammogram after addition of water ([5]; 20% water (by volume) in the presence of oxygen),SMILES,"formal potential, previously reported value [1] [V vs. SHE]","formal potential (E°′=E1/2) ([2]; DMSO, ferrocene as internal standard)",change in CV before and after static cell cycling [3],change in voltammogram on exhaustive CV cycling ([5]; over 800 cycles),metal ligand stability constant [6],stability in the presence of water [7]
8.3×10^−7 cm^2·s^−1,5.6×10^−7 cm^2·s^−1,low,2.6×10^23,no change in voltammogram shape,"O.O.O.O.O.O=C([O-])CN(O)CC(=O)[O-].O=C([O-])CN(O)CC(=O)[O-].[Ca].[V+4] [CVBH, Calcium(ii) vanadium(iv)bis-hydroxyiminodiacetate pentahydrate]",0.38,0.30 V vs standard hydrogen electrode (SHE),no observed change in the shape of the CV,virtually no change in the shape of the voltammogram,8.2×10^21,
,,,,,CC(=O)/C=C(/C)O.CC(=O)/C=C(/C)O.CC(=O)/C=C(/C)O.[V] [V(acac)3],,,,,,rapidly decomposes
